Where two headings read alike, the source gives them in different places.
Assays:
Assay type in all cases: cell-based
[1] = biological target: Ba/F3-FGFR1-transfected cells (Homo sapiens, UniProt P11362); assay: Ba/F3-FGFR1 (minus IL3) cellular proliferation assay, Alamar Blue; details: for BAF3-FGFR 1 (MIN IL3) 384 well pIC50: minus IL3, 384 well
Description: (§1) Ba/F3-FGFR1 (Minus IL3 or Plus IL3) (Cellular Proliferation Assay)
Cells were put in an incubator at 37° C. and 5% CO2. After 24 hours, 10 μl of Alamar Blue solution (0.5 mM K3Fe(CN)6, 0.5 mM KaFe(CN)6, 0.15 mM Resazurin and 100 mM Phosphate Buffer) was added to the wells, incubated for 4 hours at 37° C. and 5% CO2 before RFU's (Relative Fluorescence Units) (ex. 540 nm., em. 590 nm.) were measured in a flurorescence plate reader. […]
(§2) In a 96 well plate, 180 μl cell culture medium (phenol red free RPMI-1640, 10% FBS, 2 mM L-Glutamine and 50 μg/ml Gentamycin) containing 10000 cells per well of Ba/F3-FGFR1-transfected cells were pipette and 20 μl of compound dilution in DMSO was added. Cells were put in an incubator at 37° C. and 5% CO2. After 24 hours, 40 μl of Alamar Blue solution (0.5 mM K3Fe(CN)6, 0.5 mM KaFe(CN)6, 0.15 mM Resazurin and 100 mM Phosphate Buffer) was added to the wells, incubated for 4 hours at 37° C. and 5% CO2 before RFU's (Relative Fluorescence Units) (ex. 540 nm., em. 590 nm.) were measured in a flurorescence plate reader.

[2] = test system: Ba/F3-FGFR1-transfected cells in the presence of 10 ng/ml murine IL3; assay: Ba/F3-FGFR1 (plus IL3) cellular proliferation counterscreen, Alamar Blue; details: Mus musculus
Description: as §1
as §2, with “a 384” for “a 96”, “plate, 100 nl of compound dilution in DMSO was sprayed before adding 50” for “plate, 180”, “containing 20000” for “containing 10000”, “Ba/F3-FGFR1-transfected cells.” for “Ba/F3-FGFR1-transfected cells were pipette and 20 μl of compound dilution in DMSO was added.”, “hours, 10” for “hours, 40”
(§3) As a counterscreen the same experiment was performed in the presence of 10 ng/ml murine IL3.
as §2

[3] = test system: Ba/F3-Flt3-transfected cells in the presence of 10 ng/ml murine IL3; assay: Ba/F3-Flt3 (plus IL3) cellular proliferation counterscreen, Alamar Blue; details: Mus musculus, read-out: BAF3-FLT3 (PLUS IL3) 384 well pIC50 (converted)
Description: Ba/F3-Flt3 (Minus IL3 or Plus IL3) (Cellular Proliferation Assay)
as §2, with “a 384” for “a 96”, “plate, 100 nl of compound dilution in DMSO was sprayed before adding 50” for “plate, 180”, “containing 20000” for “containing 10000”, “of Ba/F3-Flt3-transfected cells.” for “of Ba/F3-FGFR1-transfected cells were pipette and 20 μl of compound dilution in DMSO was added.”, “hours, 10” for “hours, 40”
as §3
as §2, with “Ba/F3-Flt3-transfected” for “Ba/F3-FGFR1-transfected”

[4] = test system: Ba/F3-FGFR3-transfected cells in the presence of 10 ng/ml murine IL3; assay: Ba/F3-FGFR3 (plus IL3) cellular proliferation counterscreen, Alamar Blue; details: Mus musculus; plus 10 ng/ml murine IL3; 384 well; read-out: BAF3-FGFR 3 (PLUS IL3) 384 well pIC50 (converted)
Description: Ba/F3-FGFR3 (Minus IL3 or Plus IL3) (Cellular Proliferation Assay)
as §2, with “a 384” for “a 96”, “plate, 100 nl of compound dilution in DMSO was sprayed before adding 50” for “plate, 180”, “containing 20000” for “containing 10000”, “of Ba/F3-FGFR3-transfected cells.” for “of Ba/F3-FGFR1-transfected cells were pipette and 20 μl of compound dilution in DMSO was added.”, “hours, 10” for “hours, 40”
as §3
as §2, with “Ba/F3-FGFR3-transfected” for “Ba/F3-FGFR1-transfected”

[5] = plus IL3, 384 well, read-out: BAF3-FGFR 1 (PLUS IL3) 384 well pIC50 (converted)

Ba/F3-FGFR1-transfected cells, sequence (P11362 whole entry, change not shown): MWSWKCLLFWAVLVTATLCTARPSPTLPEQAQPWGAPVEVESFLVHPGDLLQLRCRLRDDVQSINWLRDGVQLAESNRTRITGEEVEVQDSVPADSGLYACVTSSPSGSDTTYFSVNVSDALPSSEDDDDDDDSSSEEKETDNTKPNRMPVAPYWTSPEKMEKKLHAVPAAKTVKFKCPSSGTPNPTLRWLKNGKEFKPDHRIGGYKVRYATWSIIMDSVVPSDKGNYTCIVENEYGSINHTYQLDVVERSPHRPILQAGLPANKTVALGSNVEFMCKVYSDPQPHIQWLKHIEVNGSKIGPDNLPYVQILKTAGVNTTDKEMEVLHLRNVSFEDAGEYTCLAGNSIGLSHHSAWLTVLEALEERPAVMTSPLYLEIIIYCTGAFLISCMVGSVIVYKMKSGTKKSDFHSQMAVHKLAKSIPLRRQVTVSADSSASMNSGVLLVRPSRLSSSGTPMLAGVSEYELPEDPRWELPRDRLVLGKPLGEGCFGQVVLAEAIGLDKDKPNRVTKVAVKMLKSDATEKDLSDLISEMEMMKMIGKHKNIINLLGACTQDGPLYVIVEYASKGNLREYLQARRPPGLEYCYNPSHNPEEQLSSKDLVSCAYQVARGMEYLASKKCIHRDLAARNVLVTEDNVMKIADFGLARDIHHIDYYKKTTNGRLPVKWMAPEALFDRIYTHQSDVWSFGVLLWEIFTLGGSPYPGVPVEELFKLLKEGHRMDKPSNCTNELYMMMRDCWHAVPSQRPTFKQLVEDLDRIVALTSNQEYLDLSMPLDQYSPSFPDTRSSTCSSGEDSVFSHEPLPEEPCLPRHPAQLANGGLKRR

Question: How did the “BAF3-FGFR 1 (MIN IL3) 96 well pIC50” value ([1]; minus IL3, 96 well) turn out when COc1cc(OC)cc(N(CC2CC2)c2ccc3ncc(C(=O)N4CCC4)nc3c2)c1 [Compound 93] was run?
Answer: <5

Question: And the “BAF3-FGFR 1 (MIN IL3) 384 well pIC50” value [1]?
Answer: <5

Question: What about the IC50 ([2]; plus IL3, 96 well, read-out: BAF3-FGFR 1 (PLUS IL3) 96 well pIC50 (converted)) of the same compound?
Answer: > 10 µM

Question: And the IC50 [2, 5]?
Answer: > 10 µM

Question: And the IC50 ([3]; plus 10 ng/ml murine IL3)?
Answer: > 10 µM

Question: Which results are given for COc1cc(OC)cc(N(CCNC(C)C)c2ccc3ncc(-c4ccnc(C(=O)NCCCN)c4)nc3c2)c1 [Compound 146]?
Answer: BAF3-FGFR 1 (MIN IL3) 384 well pIC50 [1]: 6.46; IC50 [2, 5]: > 10 µM; IC50 ([3]; plus 10 ng/ml murine IL3): > 10 µM

Question: What does the source list for COc1cc(OC)cc(N(CC#Cc2ncccn2)c2ccc3ncc(-c4cccnc4)nc3c2)c1 [Compound 2]?
Answer: BAF3-FGFR 1 (MIN IL3) 384 well pIC50 [1]: 6.8; IC50 [2, 5]: 7.41 µM; IC50 ([3]; plus 10 ng/ml murine IL3): > 10 µM

Question: What does the source list for COc1cc(OC)cc(N(CCCNC(C)C)c2ccc3ncc(-c4ccnc(NC(=O)NC(C)C)c4)nc3c2)c1 [Compound 131]?
Answer: BAF3-FGFR 1 (MIN IL3) 384 well pIC50 [1]: 6.44; IC50 [2, 5]: 3.98 µM; IC50 ([3]; plus 10 ng/ml murine IL3): 3.63 µM

Question: Which results are given for COc1cc(OC)cc(N(CC2CC2)c2ccc3ncc(C#Cc4cncn4C)nc3c2)c1 [Compound 22]?
Answer: BAF3-FGFR 1 (MIN IL3) 384 well pIC50 [1]: <5; IC50 [2, 5]: > 10 µM; IC50 ([3]; plus IL3, 384 well): > 10 µM

Question: For COc1cc(OC)cc(N(CCCO)c2ccc3ncc(-c4ccnc(C(=O)N5CCOCC5)c4)nc3c2)c1 [Compound 43], which “BAF3-FGFR 1 (MIN IL3) 384 well pIC50” value [1] is on record?
Answer: 6.28

Question: What about the IC50 [2, 5] of the same compound?
Answer: > 10 µM

Question: And the IC50 ([3]; plus 10 ng/ml murine IL3)?
Answer: > 10 µM

Question: COc1cc(OC)cc(N(CCCNCC(F)(F)F)c2ccc3ncc(-c4ccnc(F)c4)nc3c2)c1 [Compound 144] was tested. Which “BAF3-FGFR 1 (MIN IL3) 384 well pIC50” value [1] did it give?
Answer: <5

Question: And the IC50 [2, 5]?
Answer: > 10 µM

Question: And the IC50 ([3]; plus 10 ng/ml murine IL3)?
Answer: > 10 µM

Question: How did the “BAF3-FGFR 1 (MIN IL3) 384 well pIC50” value [1] turn out when COc1cc(OC)cc(N(CCCNCC(=O)O)c2ccc3ncc(-c4ccnc(C(=O)NCCCCN)c4)nc3c2)c1 [Compound 44] was run?
Answer: <5

Question: What about the IC50 [2, 5] of the same compound?
Answer: > 10 µM

Question: And the IC50 ([3]; plus 10 ng/ml murine IL3)?
Answer: > 10 µM

Question: How did the “BAF3-FGFR 1 (MIN IL3) 384 well pIC50” value [1] turn out when COc1cc(OC)cc(N(CCCNCCCO)c2ccc3ncc(-c4ccnc(C(=O)NCCCCN)c4)nc3c2)c1 [Compound 132] was run?
Answer: 5.8

Question: And the IC50 [2, 5]?
Answer: > 10 µM

Question: And the IC50 ([3]; plus 10 ng/ml murine IL3)?
Answer: ~5.5 µM

Question: With COc1cc(OC)cc(N(CCCO)c2ccc3ncc(-c4ccnc(C(=O)NCCCCCN)c4)nc3c2)c1 [Compound 130] as the compound, how does the “BAF3-FGFR 1 (MIN IL3) 384 well pIC50” value [1] read?
Answer: 5.1

Question: And the IC50 [2, 5]?
Answer: > 10 µM

Question: And the IC50 ([3]; plus 10 ng/ml murine IL3)?
Answer: > 10 µM

Question: What does the source list for COc1cc(OC)cc(N(CCO)c2ccc3ncc(-c4ccc(N5CCNCC5)cc4)nc3c2)c1 [Compound 166]?
Answer: IC50 [2, 5]: 4.79 µM; IC50 [4]: ~6.03 µM; IC50 ([3]; plus 10 ng/ml murine IL3): ~5.62 µM

Question: Which results are given for COc1cc(OC)cc(N(CC2CC2)c2ccc3ncc(N4CCN(CCO)CC4)nc3c2)c1 [Compound 49]?
Answer: BAF3-FGFR 1 (MIN IL3) 384 well pIC50 [1]: <5; IC50 [2, 5]: > 10 µM; IC50 ([3]; plus 10 ng/ml murine IL3): > 10 µM

Question: Which results are given for COc1cc(OC)cc(N(CCCNC(C)C)c2ccc3ncc(-c4ccnc(N)c4)nc3c2)c1 [Compound 143]?
Answer: BAF3-FGFR 1 (MIN IL3) 384 well pIC50 [1]: 6.56; IC50 [2, 5]: 5.62 µM; IC50 ([3]; plus 10 ng/ml murine IL3): 6.61 µM

From patent publication US10052320B2, “Substituted quinoxalines as FGFR kinase inhibitors” (ASTEX THERAPEUTICS LIMITED, priority 2011, dated 2018)
